Data reported in patent US20230135894A1, “MK2 DEGRADERS AND USES THEREOF” (Kymera Therapeutics, Inc., priority 2021, published 2023).

Experiments:
[1] = target: T1, MK2 (Homo sapiens, UniProt P49137); test: MK2 degradation in human THP-1 monocytic cells (MSD, 24 h); assay type: cell-based; set-up: endogenous in cells; details: for Dmax: THP-1, THP-1 cells; for DC50: THP-1 cells, read-out: MK2 MSD THP-1 degradation 24 h GMean External Abs DC50
How it was run: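 THP-1 cells (200,000/well) treated 24 h at 37 °C with compound dilution series (up to 10 points, 0.1% DMSO). MK2 in RIPA lysates quantified by MSD sandwich immunoassay. DC50 from 4-parameter logistic fit, DMSO-treated cells as high and lysis buffer as low signal.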

[2] = target: T1, MK2; test: MK2 degradation in human SW1353 cells (MSD, 24 h); assay type: cell-based; set-up: endogenous in cells; host or cells: SW-1353 (ATCC HTB-94); details: for Dmax: read-out: MK2 MSD SW 1353 24 h Dmax %; for DC50: read-out: MK2 MSD SW1353 degradation 24 h GMean External Abs DC50
How it was run: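 SW1353 chondrosarcoma cells were treated with up to 10-point serial dilutions (0.1% DMSO) for 24 h at 37 °C, then lysed in RIPA buffer. MK2 levels were quantified by MSD sandwich immunoassay; DC50 came from a 4-parameter logistic fit normalised to DMSO-treated cells (high) and lysis buffer (low).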

T1 sequence (P49137 whole entry): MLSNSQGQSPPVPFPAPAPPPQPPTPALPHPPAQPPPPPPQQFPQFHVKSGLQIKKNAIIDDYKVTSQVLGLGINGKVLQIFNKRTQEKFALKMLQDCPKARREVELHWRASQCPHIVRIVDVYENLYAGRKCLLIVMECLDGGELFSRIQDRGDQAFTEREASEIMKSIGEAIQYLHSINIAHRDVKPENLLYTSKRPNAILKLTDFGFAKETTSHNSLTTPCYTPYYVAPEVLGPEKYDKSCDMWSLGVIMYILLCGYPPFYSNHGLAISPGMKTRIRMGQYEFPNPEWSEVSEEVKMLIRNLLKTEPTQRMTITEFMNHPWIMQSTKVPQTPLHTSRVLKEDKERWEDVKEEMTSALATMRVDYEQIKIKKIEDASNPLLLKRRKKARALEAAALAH

| Compound | Dmax [1] [%] | DC50 [1] [nM] | Dmax [2] [%] | DC50 [2] [nM] |
| --- | --- | --- | --- | --- |
| C[C@@H]1CNc2c(sc3ccc4nc(-c5ccc(N6CCN(CCCCOc7ccc(N8CCC(=O)NC8=O)cc7)CC6)nc5)ccc4c23)C(=O)N1 [Compound I-437] | > 75 | 1 to 10 | > 75 | 1 to 10 |
| C[C@@H]1CNc2c(sc3ccc4nc(-c5ccc(N6CCN(CC7CCN(c8ccc(N9CCC(=O)NC9=O)cc8)CC7)CC6)nc5)ccc4c23)C(=O)N1 [Compound I-438] | > 75 | 1 to 10 | > 75 | 1 to 10 |
| C[C@@H]1CNc2c(sc3ccc4nc(N5CCC(CN6CC7(C6)CN(c6ccc8c(c6)n(C)c(=O)n8C6CCC(=O)NC6=O)C7)CC5)ccc4c23)C(=O)N1 (some centres unmarked) [Compound I-439] | > 75 | 1 to 10 | > 75 | < 1 |
| C[C@@H]1CNc2c(sc3ccc4nc(N5CCC(N6CC7(CCN(c8ccc9c(c8)n(C)c(=O)n9C8CCC(=O)NC8=O)CC7)C6)CC5)ccc4c23)C(=O)N1 (some centres unmarked) [Compound I-440] | > 75 | < 1 | > 75 | < 1 |
| C[C@@H]1CNc2c(sc3ccc4nc(N5CCC6(CC5)CN(C5CCN(c7cccc8c7n(C)c(=O)n8C7CCC(=O)NC7=O)CC5)C6)ccc4c23)C(=O)N1 (some centres unmarked) [Compound I-441] | > 75 | 1 to 10 | > 75 | < 1 |
| C[C@@H]1CNc2c(sc3ccc4nc(N5CCCN(CC6CCN(c7cccc8c7n(C)c(=O)n8C7CCC(=O)NC7=O)CC6)CC5)ccc4c23)C(=O)N1 (some centres unmarked) [Compound I-442] | < 50 | > 100 | < 50 | > 100 |
| C[C@@H]1CNc2c(sc3ccc4nc(N5CCN(C6CC7(CCN(c8cccc9c8n(C)c(=O)n9C8CCC(=O)NC8=O)CC7)C6)CC5)ccc4c23)C(=O)N1 (some centres unmarked) [Compound I-443] | > 75 | < 1 | > 75 | < 1 |
| C[C@@H]1CNc2c(sc3ccc4nc(N5CCCN(CCC6CCN(c7ccc8c(c7)n(C)c(=O)n8C7CCC(=O)NC7=O)CC6)CC5)ccc4c23)C(=O)N1 (some centres unmarked) [Compound I-444] | 50 to 75 | 1 to 10 | > 75 | 1 to 10 |
| C[C@@H]1CNc2c(sc3ccc4nc(N5CCN(CCC6CCN(c7ccc8c(c7)n(C)c(=O)n8C7CCC(=O)NC7=O)CC6)CC5)ccc4c23)C(=O)N1 (some centres unmarked) [Compound I-445] | > 75 | < 1 | > 75 | < 1 |
| C[C@@H]1CNc2c(sc3ccc4nc(N5CCCN(CC6CCN(c7ccc8c(c7)n(C)c(=O)n8C7CCC(=O)NC7=O)CC6)CC5)ccc4c23)C(=O)N1 (some centres unmarked) [Compound I-446] | < 50 | > 100 | < 50 | > 100 |
| CCc1cc(-c2cc(-c3cc4c([nH]3)CCNC4=O)ccn2)cc(CC)c1N1CCN(CC2CCN(c3ccc4c(c3)n(C)c(=O)n4C3CCC(=O)NC3=O)CC2)CC1 (centres unmarked) [Compound I-447] | < 50 | > 100 | 50 to 75 | 10 to 100 |
| CCc1cc(-c2cc(-c3cc4c([nH]3)C3(CC3)CNC4=O)ccn2)cc(CC)c1N1CCN(CC2CCN(c3ccc4c(c3)n(C)c(=O)n4C3CCC(=O)NC3=O)CC2)CC1 (centres unmarked) [Compound I-448] | < 50 | > 100 | 50 to 75 | 1 to 10 |
| CN1CCc2[nH]c(-c3ccnc(-c4ccc(N5CCN(CC6CCN(c7ccc8c(c7)n(C)c(=O)n8C7CCC(=O)NC7=O)CC6)CC5)cc4)c3)cc2C1=O (centres unmarked) [Compound I-450] | < 50 | > 100 | < 50 | > 100 |
| C[C@@H]1CNc2c(sc3ccc4nc(N5CCN(C6CC7(CCN(c8ccc9c(c8)n(C)c(=O)n9C8CCC(=O)NC8=O)CC7)C6)CC5)ccc4c23)C(=O)N1 (some centres unmarked) [Compound I-451] | > 75 | < 1 | > 75 | < 1 |
| C[C@@H]1CNc2c(sc3ccc4nc(N5C[C@H]6CC[C@@H]5CN6CC5CCN(c6cccc7c6n(C)c(=O)n7C6CCC(=O)NC6=O)CC5)ccc4c23)C(=O)N1 (some centres unmarked) [Compound I-452] | 50 to 75 | 10 to 100 | 50 to 75 | 1 to 10 |
| Cn1c(=O)n(C2CCC(=O)NC2=O)c2ccc(N3CCC(CN4CCN(c5ccc6occc6c5-c5cc(Nc6ccnc(N)n6)cc6cn[nH]c56)CC4)CC3)cc21 (centres unmarked) [Compound I-453] | < 50 | > 100 | < 50 | > 100 |
| Cn1c(=O)n(C2CCC(=O)NC2=O)c2ccc(N3CCC(CN4CCN(c5ccc6cc(-c7cc(Nc8ccnc(N)n8)cc8cn[nH]c78)oc6c5)CC4)CC3)cc21 (centres unmarked) [Compound I-454] | < 50 | > 100 | < 50 | > 100 |
| Cn1c(=O)n(C2CCC(=O)NC2=O)c2ccc(N3CCC(CN4CCN(c5cc(C#N)cc(-n6cc(-c7ccc8c(c7)CCNC8=O)c(N)n6)c5)CC4)CC3)cc21 (centres unmarked) [Compound I-458] | < 50 | > 100 | < 50 | > 100 |
| COc1cc(N2CCN(CC3CCN(c4ccc5c(c4)n(C)c(=O)n5C4CCC(=O)NC4=O)CC3)CC2)cc(-n2cc(-c3ccc4c(c3)CCNC4=O)c(N)n2)c1 (centres unmarked) [Compound I-459] | < 50 | > 100 | < 50 | > 100 |
| COc1cccc(-c2cc(N3CCN(CC4CCN(c5ccc6c(c5)n(C)c(=O)n6C5CCC(=O)NC5=O)CC4)CC3)cc(-n3cc(-c4ccc5c(c4)CCNC5=O)c(N)n3)c2)c1 (centres unmarked) [Compound I-460] | < 50 | > 100 | < 50 | > 100 |
| Cn1c(=O)n(C2CCC(=O)NC2=O)c2ccc(N3CCC(CN4CCN(c5cc(-c6ccc7cc[nH]c7c6)cc(-n6cc(-c7ccc8c(c7)CCNC8=O)c(N)n6)c5)CC4)CC3)cc21 (centres unmarked) [Compound I-461] | 50 to 75 | 10 to 100 | > 75 | 1 to 10 |
| Cc1ccc(NC(=O)c2cccc(C(F)(F)F)c2)cc1N1Cc2cnc(Nc3ccc(N4CCN(CCCCCC(=O)N[C@H](C(=O)N5C[C@H](O)C[C@H]5C(=O)N[C@@H](C)c5ccc(-c6scnc6C)cc5)C(C)(C)C)CC4)nc3)nc2N(C)C1=O [Compound I-462] | > 75 | 1 to 10 | > 75 | 10 to 100 |
| Cc1ccc(NC(=O)c2cccc(C(F)(F)F)c2)cc1N1Cc2cnc(Nc3ccc(N4CCN(CCCCC(=O)N[C@H](C(=O)N5C[C@H](O)C[C@H]5C(=O)N[C@@H](C)c5ccc(-c6scnc6C)cc5)C(C)(C)C)CC4)nc3)nc2N(C)C1=O [Compound I-463] | > 75 | 1 to 10 | > 75 | 1 to 10 |
